The values below come from patent publication US5892113A, “Hydroxyethyl aminimides” (priority 1997, dated 1999).

This experiment deals with T1, HIV-1 protease (HIV-1 M:B_ARV2/SF2, UniProt P03369, C557X/C585X).
T1 construct: aminobutyric acid at 67 and 95, thioester at 51-52; NovaBiochem kit
Description: Fluorometric HIV-1 protease inhibition assay (NovaBiochem kit, fluorogenic substrate). It counts as biochemical. As for the experimental part: The inhibition constant (Ki) of compound Ia is determined using HIV-1 protease kit supplied by NovaBiochem (cat. #10-39-0001, which supplies a solid phase synthesized analog of the protease, incorporating the unnatural residue aminobutyric acid in place of both cysteine residues 67 and 95, along with a thioester linkage in place of the normal peptide bond between residues 51-52). A fluorometric assay is performed using a fluorogenic substrate supplied by NovaBiochem (cat. #05-23-5216, Abz-Thr-Ile-Nle-Phe(NO2)-Gln-Arg-NH2). Initial rates of substrate hydrolysis are determined by following the increase in the fluorescence emission at 420 nm (excitation is at 325 nm) as the substrate is digested by the protease. The initial rates of substrate cleavage is determined in the absence and presence of compound Ia (up to a concentration of Ia=500 nM).

Each structure is given as a SMILES string.

As to `CC(C)(C)OC(=O)N[C@@H](Cc1ccccc1)[C@@H](O)C[N+](C)(Cc1ccccc1)[N-]C(=O)c1ccccc1` (single isomer, unassigned) [Ia], the “mode of inhibition (Lineweaver-Burk analysis)” value (initial rates of substrate cleavage in absence and presence of Ia (up to 500 nM)) was “classical competitive inhibition”. In addition, the Ki (read-out: inhibition constant (Ki), synthetic HIV-1 protease analog (NovaBiochem), substrate Abz-Thr-Ile-Nle-Phe(NO2)-Gln-Arg-NH2, replot of Lineweaver-Burk slopes, Ia up to 500 nM) is 137 nM.
